Test results published in publication PMC9988422, “Usefulness of a humanized tricellular static transwell blood–brain barrier model as a microphysiological system for drug development applications. - A case study based on the benchmark evaluations of blood-brain barrier microphysiological system” (Regenerative Therapy, 2023).

What was measured:
[1] = molecular target: T1, Glut1 (Homo sapiens, UniProt P11166); test: Bidirectional transport assay in the human in vitro BBB model, Glut1 substrate; assay type: in vitro ADME; details: 2-NBDG 100 μg/ml
T1 construct: endogenous in cells; host or cells: HBMEC/ci18 co-cultured with HBPC/ci37 and HASTR/ci35 (transwell)
T1 sequence (P11166 1-492): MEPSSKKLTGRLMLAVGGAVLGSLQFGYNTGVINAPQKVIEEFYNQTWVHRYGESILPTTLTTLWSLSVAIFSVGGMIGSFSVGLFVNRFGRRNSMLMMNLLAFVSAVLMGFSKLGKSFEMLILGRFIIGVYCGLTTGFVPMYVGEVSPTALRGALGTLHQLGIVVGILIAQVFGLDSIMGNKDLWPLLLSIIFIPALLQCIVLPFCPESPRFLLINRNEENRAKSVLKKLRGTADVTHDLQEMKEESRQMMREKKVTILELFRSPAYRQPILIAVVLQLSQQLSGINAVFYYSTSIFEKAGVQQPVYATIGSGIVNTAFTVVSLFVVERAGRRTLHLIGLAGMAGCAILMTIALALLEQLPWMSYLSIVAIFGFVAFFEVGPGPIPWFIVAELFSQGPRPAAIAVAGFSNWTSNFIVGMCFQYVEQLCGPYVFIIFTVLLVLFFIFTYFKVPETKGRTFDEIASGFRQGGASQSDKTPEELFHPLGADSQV
Procedure: (§1) In vitro human BBB models were developed by combining three immortalized cell lines). Briefly, HBPC/ci37 cells were seeded on the bottom side of the collagen IV- and Fibronectin-coated polycarbonate membrane of a transwell insert (Millicell cell culture insert 24-well hanging inserts, 0.4 μm […]; Merck, Darmstadt, Germany) at a density of 1.0 × 10^4 cells/insert. The cells were then cultured for 1 day to allow them to attach firmly. HASTR/ci35 cells were seeded (5.0 × 10^4 cells/well) on collagen I-coated 24-well plates (Greiner Bio-one, Frickenhausen, Germany) and maintained in astrocyte culture medium. HBPC/ci37 cells were induced to differentiate by replacing the pericyte medium with pericyte differentiation medium, which was consisted of FBS- and blasticidin S-free pericyte medium; HASTR/ci35 cells were induced to differentiate by replacing the astrocyte culture medium with astrocyte differentiation medium, which was consisted of FBS- and blasticidin S-free astrocyte growth medium supplemented with 1 mM adenosine 3′,5′-cyclic monophosphate sodium salt monohydrate. After the differentiation media were added, both cell lines were cultured at 37 °C for 24 h. To start a coculture, HBMEC/ci18 cells were seeded on the inner side of the HBPC/ci37 cell culture insert at a density of 1.0 × 10^5 cells. […]

[2] = Permeability assay with permeable and nonpermeable compounds in the human in vitro BBB model; details: human
Procedure: as §1

[3] = tested on: human in vitro BBB model (HBMEC/ci18, HBPC/ci37, HASTR/ci35); test: as above
Procedure: as §1

O=[N+]([O-])c1ccc(N[C@H]2C(O)O[C@H](CO)[C@@H](O)[C@@H]2O)c2nonc12 (stereo partly shown) [2-NBDG]
Efflux Ratio Mean ([1]; mean of 4 independent experiments): 1.1 | Efflux Ratio (Pe (B to A)/Pe (A to B)) ([1]; single independent experiment): 1.01

Cn1c(=O)c2c(ncn2C)n(C)c1=O [caffeine]
Papp at 5 μM [2]: 1160 ± 492 ×10⁻⁶ cm/s

Lucifer Yellow
Pe value (permeability coefficient) [3]: 90.2 ± 23.1 × 10^−6 cm/s
